Reference: the supplement of paper PMC10307832

Assays:
Experiment in all cases: relative viability (nuclei count vs DMSO), 5 days (fraction); higher = more cells survive
BI-2536 + Palbociclib = compound: CC[C@@H]1C(=O)N(C)c2cnc(Nc3ccc(C(=O)NC4CCN(C)CC4)cc3OC)nc2N1C1CCCC1 [BI-2536] + CC(=O)c1c(C)c2cnc(Nc3ccc(N4CCNCC4)cn3)nc2n(C2CCCC2)c1=O [Palbociclib] (partner 0.5 µM)
Summary of the method: (§1)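 Relative viability divides the nuclei count in treated wells by that in vehicle wells. Lung cancer cell lines were seeded in 1536-well plates, dosed by pin tool the next day, and fixed and stained after 5 days in one step with final 0.05% Triton X-100, 1% formaldehyde and 1 ug/ml Hoechst. Dosing was a single drug or a fixed anchor-drug dose plus five library-drug doses (not always all listed) in √10 steps, and values are medians of duplicate plates imaged at 4×.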

[1] = compound: CC1CC(=O)N(C2=CN=C(N=C2N1C3CCCC3)NC4=C(C=C(C=C4)C(=O)NC5CCN(CC5)C)OC)C [NPK76-II-72-1] + CC(C)C[C@H](NC(=O)[C@H](Cc1ccccc1)NC(=O)c1cnccn1)B(O)O [Bortezomib] (partner 0.002 µM)
Summary of the method: as §1

[2] = compound: CC1CC(=O)N(C2=CN=C(N=C2N1C3CCCC3)NC4=C(C=C(C=C4)C(=O)NC5CCN(CC5)C)OC)C [NPK76-II-72-1] + C[C@]1(O)C[C@@H](c2nc(-c3ccc4ccc(-c5ccccc5)nc4c3)c3c(N)nccn32)C1 [Linsitinib] (partner 1 µM)
Summary of the method: as §1

BI-2536 + Dasatinib = compound: CC[C@@H]1C(=O)N(C)c2cnc(Nc3ccc(C(=O)NC4CCN(C)CC4)cc3OC)nc2N1C1CCCC1 [BI-2536] + Cc1nc(Nc2ncc(C(=O)Nc3c(C)cccc3Cl)s2)cc(N2CCN(CCO)CC2)n1 [Dasatinib] (partner 0.075 µM)
Summary of the method: as §1

| Cell Line | relative viability (BI-2536 + Palbociclib; first compound 0.01 µM) | relative viability (BI-2536 + Palbociclib; first compound 0.03162 µM) | relative viability (BI-2536 + Palbociclib; first compound 0.1 µM) | relative viability (BI-2536 + Palbociclib; first compound 0.3162 µM) | relative viability (BI-2536 + Palbociclib; first compound 1 µM) | relative viability ([1]; first compound 0.01 µM) | relative viability ([1]; first compound 0.03162 µM) | relative viability ([1]; first compound 0.1 µM) | relative viability ([1]; first compound 0.3162 µM) | relative viability ([1]; first compound 1 µM) | relative viability ([2]; first compound 0.01 µM) | relative viability ([2]; first compound 0.03162 µM) | relative viability ([2]; first compound 0.1 µM) | relative viability ([2]; first compound 0.3162 µM) | relative viability ([2]; first compound 1 µM) | relative viability (BI-2536 + Dasatinib; first compound 0.01 µM) | relative viability (BI-2536 + Dasatinib; first compound 0.03162 µM) | relative viability (BI-2536 + Dasatinib; first compound 0.1 µM) | relative viability (BI-2536 + Dasatinib; first compound 0.3162 µM) | relative viability (BI-2536 + Dasatinib; first compound 1 µM) |
| --- | --- | --- | --- | --- | --- | --- | --- | --- | --- | --- | --- | --- | --- | --- | --- | --- | --- | --- | --- | --- |
| NCI-H441 | 0.201 | 0.203 | 0.183 | 0.132 | 0.122 | 0.872 | 0.312 | 0.319 | 0.527 | 0.451 | 0.479 | 0.696 | 0.492 | 0.265 | 0.65 | 0.434 | 0.244 | 0.195 | 0.164 | 0.179 |
| NCI-H460 | 0.264 | 0.15 | 0.14 | 0.0134 | 0.0152 | 1.02 | 1.26 | 1.11 | 1.01 | 1.18 | 0.721 | 0.787 | 0.842 | 0.762 | 0.895 | 0.483 | 0.635 | 0.368 | 0.0145 | 0.0151 |
| NCI-H520 | 0.225 | 0.216 | 0.182 | 0.178 | 0.178 | 0.731 | 0.766 | 0.385 | 0.514 | 0.544 | 0.753 | 0.83 | 0.804 | 0.922 | 1.07 | 0.164 | 0.204 | 0.194 | 0.153 | 0.13 |
| NCI-H647 | 0.265 | 0.473 | 0.266 | 0.0799 | 0.06 | 0.847 | 1.1 | – | 0.853 | 1.05 | 1.2 | 1.28 | – | 1.07 | 1.14 | 0.156 | 0.184 | 0.0428 | 0.0374 | 0.039 |
| NCI-H650 | 0.315 | 0.274 | 0.294 | 0.187 | 0.138 | 0.862 | 0.678 | 0.729 | – | 1.02 | 0.941 | 1.02 | 0.652 | – | 0.845 | 0.44 | 0.511 | 0.3 | 0.158 | 0.0998 |
| NCI-H661 | 0.403 | 0.372 | 0.331 | 0.209 | 0.225 | 0.912 | 0.793 | 0.688 | 0.647 | 0.854 | 0.536 | 0.557 | 0.546 | 0.525 | 0.519 | 0.851 | 0.307 | – | – | 0.367 |
| NCI-H727 | 0.708 | 0.613 | 0.701 | 0.615 | 0.437 | 0.881 | 0.981 | 0.938 | 0.9 | 0.869 | 0.233 | 0.259 | 0.27 | 0.287 | 0.331 | 0.442 | 0.312 | 0.319 | 0.322 | 0.227 |
| NCI-H838 | 0.214 | 0.202 | 0.199 | 0.0979 | 0.0994 | 0.768 | 0.885 | 0.988 | 0.771 | 0.715 | 0.935 | 1.05 | 1.11 | 1.01 | 1.03 | 0.281 | 0.291 | 0.235 | 0.134 | 0.164 |
